The subject of data set [1] is neoantigen-specific T-cell clones in blood. Nature of the data set: DNA-barcoded neoantigen-peptide-MHC tetramers with single-cell TCR sequencing (patient P6). The data set is classed as cell-based, human. Conditions: blood of patient P6.
A further data set has as its system MX1. Nature of the data set: Knock down of MX1 in PBMCs by siRNA, qPCR and tumor killing. The data set is classed as cell-based, human. To be noted: MX1 depletion by siRNA vs negative control oligonucleotides. Here is the method: PBMCs were cultured in X-VIVO 15 medium (Lonza) supplemented with 10% Fetal Bovine Serum (Gemini), Penicillin-Streptomycin (Gibco), Antibiotic-Antimycotic (Gibco), 20 ng/ml recombinant human IL-7 (R&D), 50 U/ml recombinant human IL-2 (R&D) for one week. Then, TransIT-TKO kit (Mirus) was used to transient transfect MX1 siRNA into PBMCs. After 3 days of culture at 37° C., PBMCs were collected. A part of PBMCs co-incubated with tumor cells to test the killing effect of PBMCs after siRNA interference. The other part of PBMCs was extracted RNA with AllPrep DNA/RNA Kits (QIAGEN) and reverse transcription to cDNA with PrimeScript RT reagent Kit (Takara), and then used NovoStart SYBR qPCR SuperMix Plus (Novoprotein) performs qPCR to verify the efficiency of siRNA interference. The relative expressions of MX1 gene at the mRNA level was calculated by the 2-ΔΔCt method. GAPDH was used as a housekeeping gene.

Turning to “YVECGKAFK [neoantigen-peptide-85-epitopel]”, in data set [1], the “tetramer-positive T-cell clones (peptide-MHC HLA-A*11:01 tetramer)” value was “No tetramer-positive T-cell clones”.
Turning to “5′-GCTTTGTGAATTACAGGACAT-3′ (only one strand given, further chemistry not given here) [MX1 siRNA, siRNA transiently transfected into PBMCs to knock down MX1]”, the “anti-tumor ability of immune cells in PBMC” value in the data set on MX1 is recorded as “remarkably impaired”.
